Test results from article PMC9573548, “Metabolic Profiling by GC-MS, In Vitro Biological Potential, and In Silico Molecular Docking Studies of Verbena officinalis” (Molecules, 2022).

Test system: T1, urease
T1 construct: jack bean is only the usual preparation; docking model 1E9Z (Helicobacter pylori) is not the assayed enzyme
Assay: indophenol (phenol-hypochlorite) ammonia assay, […] nm
Format: biochemical
Conditions: urea substrate (2.25% solution), phosphate buffer pH 7.0, room temperature, 15 min preincubation

## NC(=O)NO [hydroxy urea]
  Urease IC50: 9.8 ± 1.20 µg/mL
